Measured values: PubChem BioAssay AID204 (DTP/NCI, 2004)
Several values for one entry are separate records, joined by “and”; a condition that tells them apart may be missing. Equal values may be shown once. Toxic doses and inconclusive results are not listed.

Tested on: BDF1 mice, P288 methotrexate-resistant leukemia, survival T/C
Assay: NCI In Vivo Anticancer Drug Screen. Data for tumor model P288 Lymphocytic Leukemia resistant to methotrexate; NSC 740 (intraperitoneal) in B6D2F1 (BDF1) mice
Settings: endpoint: median survival time, higher = longer survival
Description: The antitumor activity of compounds was measured in mice bearing transplantable tumors. Survival or tumor size were measured and the results are expressed as the measurement made in the treated group (T) divided by the measurement made in the vehicle treated control group (C). The tumor model used in this assay is P288 Lymphocytic Leukemia resistant to methotrexate; NSC 740 (intraperitoneal) in B6D2F1 (BDF1) mice

[1] = dose: 25.0 mg/kg/injection, schedule: Q01DX010 (ip), vehicle: saline
[2] = dose: 50.0 mg/kg/injection, schedule: Q01DX010 (ip), vehicle: saline
[3] = dose: 100.0 mg/kg/injection, schedule: Q01DX010 (ip), vehicle: saline
[4] = dose: 6.0 mg/kg/injection, schedule: Q01DX010 (ip), vehicle: saline
[5] = dose: 125.0 mg/kg/injection, schedule: Q01DX010 (ip), vehicle: saline
[6] = dose: 0.25 mg/kg/injection, schedule: Q01DX010 (ip), vehicle: saline
[7] = dose: 0.5 mg/kg/injection, schedule: Q01DX010 (ip), vehicle: saline
[8] = dose: 1.0 mg/kg/injection, schedule: Q01DX010 (ip), vehicle: saline
[9] = dose: 15.0 mg/kg/injection, schedule: Q01DX010 (ip), vehicle: saline
[10] = dose: 30.0 mg/kg/injection, schedule: Q01DX010 (ip), vehicle: saline
[11] = dose: 60.0 mg/kg/injection, schedule: Q01DX010 (ip), vehicle: saline
[12] = dose: 200.0 mg/kg/injection, schedule: Q01DX010 (ip), vehicle: saline

Clc1ccc(C(c2ccccc2Cl)C(Cl)Cl)cc1 (configuration not stated)
T/C (dose: 62.5 mg/kg/injection, schedule: Q01DX010 (sc), vehicle: steriod suspending solution): 109 % of control
T/C (dose: 125.0 mg/kg/injection, schedule: Q01DX010 (sc), vehicle: steriod suspending solution): 100 % of control
T/C (dose: 250.0 mg/kg/injection, schedule: Q01DX010 (sc), vehicle: steriod suspending solution): 109 % of control
T/C (dose: 500.0 mg/kg/injection, schedule: Q01DX010 (sc), vehicle: steriod suspending solution): 100 % of control

COc1cc(-c2ccc(Nc3ccccc3C(=O)O)c(OC)c2)ccc1Nc1ccccc1C(=O)O
T/C [1]: 154 % of control
T/C [2]: 163 % of control
T/C [3]: 172 % of control

O[C@H](CN1CC1)[C@@H](O)CN1CC1
T/C (dose: 62.5 micrograms/kg/injection, schedule: Q01DX010 (ip), vehicle: saline): 100 % of control
T/C (dose: 250.0 micrograms/kg/injection, schedule: Q01DX010 (ip), vehicle: saline): 155 % of control and 181 % of control

S=P(N1CC1)(N1CC1)N1CC1
T/C (dose: 0.75 mg/kg/injection, schedule: Q01DX010 (ip), vehicle: saline): 100 % of control and 111 % of control
T/C (dose: 1.5 mg/kg/injection, schedule: Q01DX010 (ip), vehicle: saline): 111 % of control
T/C [4]: 116 % of control and 120 % of control

CCCSc1ncnc2nc[nH]c12
T/C (dose: 15.6 mg/kg/injection, schedule: Q01DX010 (ip), vehicle: saline): 104 % of control
T/C (dose: 31.3 mg/kg/injection, schedule: Q01DX010 (ip), vehicle: saline): 90 % of control and 100 % of control
T/C (dose: 62.5 mg/kg/injection, schedule: Q01DX010 (ip), vehicle: saline): 90 % of control and 104 % of control
T/C [5]: 90 % of control

NC(Cc1ccc(N(CCCl)CCCl)cc1)C(=O)O (configuration not stated)
T/C (dose: 1.0 mg/kg/injection, schedule: Q01DX010 (ip), vehicle: other): 160 % of control
T/C (dose: 2.0 mg/kg/injection, schedule: Q01DX010 (ip), vehicle: other): 165 % of control
T/C (dose: 4.0 mg/kg/injection, schedule: Q01DX010 (ip), vehicle: other): 215 % of control
T/C (dose: 5.0 mg/kg/injection, schedule: Q01DX010 (ip), vehicle: saline): 160 % of control
T/C (dose: 10.0 mg/kg/injection, schedule: Q01DX010 (ip), vehicle: saline): 186 % of control
T/C (dose: 20.0 mg/kg/injection, schedule: Q01DX010 (ip), vehicle: saline): 105 % of control

Nc1ncnc2c1ccn2C1OC(CO)C(O)C1O (configuration not stated)
T/C [6]: 100 % of control
T/C [7]: 100 % of control
T/C [8]: 118 % of control
T/C (dose: 2.0 mg/kg/injection, schedule: Q01DX010 (ip), vehicle: saline): 100 % of control

Clc1ncnc2nc[nH]c12
T/C (dose: 7.5 mg/kg/injection, schedule: Q01DX010 (ip), vehicle: saline): 93 % of control
T/C [9]: 93 % of control
T/C [10]: 93 % of control
T/C [11]: 100 % of control

CO[C@H](C(=O)[C@@H](O)[C@@H](C)O)[C@@H]1Cc2cc3cc(OC4CC(OC5CC(O)C(O)C(C)O5)C(O)C(C)O4)c(C)c(O)c3c(O)c2C(=O)[C@H]1OC1CC(OC2CC(OC3CC(C)(O)C(O)C(C)O3)C(O)C(C)O2)C(O)C(C)O1 (some centres not stated)
T/C [6]: 95 % of control
T/C [7]: 95 % of control
T/C [8]: 104 % of control

C[C@]12C=CC(=O)C=C1CC[C@@H]1[C@@H]2[C@@H](O)C[C@@]2(C)[C@H]1CC[C@]2(O)C(=O)CO
T/C (dose: 25.0 mg/kg/injection, schedule: Q01DX010 (sc), vehicle: steriod suspending solution): 118 % of control
T/C (dose: 50.0 mg/kg/injection, schedule: Q01DX010 (sc), vehicle: steriod suspending solution): 109 % of control
T/C (dose: 100.0 mg/kg/injection, schedule: Q01DX010 (sc), vehicle: steriod suspending solution): 100 % of control
T/C (dose: 200.0 mg/kg/injection, schedule: Q01DX010 (sc), vehicle: steriod suspending solution): 100 % of control

O=C(Nc1ccc(C2=NCCN2)cc1)c1ccc(C(=O)Nc2ccc(C3=NCCN3)cc2)c([N+](=O)[O-])c1
T/C [4]: 150 % of control
T/C (dose: 8.0 mg/kg/injection, schedule: Q01DX010 (ip), vehicle: saline): 160 % of control and 172 % of control
T/C (dose: 12.0 mg/kg/injection, schedule: Q01DX010 (ip), vehicle: saline): 238 % of control and 285 % of control
T/C (dose: 18.0 mg/kg/injection, schedule: Q01DX010 (ip), vehicle: saline): 161 % of control and 165 % of control

NC(Cc1c[nH]c2ccc(N(CCCl)CCCl)cc12)C(=O)O (configuration not stated)
T/C [7]: 104 % of control

CS(=O)(=O)OCC(O)C(O)COS(C)(=O)=O (configuration not stated)
T/C [12]: 86 % of control
T/C (dose: 400.0 mg/kg/injection, schedule: Q01DX010 (ip), vehicle: saline): 93 % of control
T/C (dose: 800.0 mg/kg/injection, schedule: Q01DX010 (ip), vehicle: saline): 100 % of control

CC(=O)Nc1ccc2nc3ccc(NC(C)=O)cc3[n+](-c3ccccc3)c2c1
T/C [1]: 122 % of control
T/C [2]: 110 % of control
T/C [3]: 106 % of control
T/C [12]: 100 % of control and 113 % of control

CCOC(N)=O
T/C [5]: 100 % of control
T/C (dose: 250.0 mg/kg/injection, schedule: Q01DX010 (ip), vehicle: saline): 100 % of control
T/C (dose: 500.0 mg/kg/injection, schedule: Q01DX010 (ip), vehicle: saline): 100 % of control
T/C (dose: 1000.0 mg/kg/injection, schedule: Q01DX010 (ip), vehicle: saline): 87 % of control and 88 % of control

N#CCSc1ncnc2nc[nH]c12
T/C [9]: 91 % of control
T/C [10]: 94 % of control and 95 % of control
T/C [11]: 91 % of control and 94 % of control
T/C (dose: 120.0 mg/kg/injection, schedule: Q01DX010 (ip), vehicle: saline): 94 % of control
